Data reported in patent US11319295B2, “Substituted phenyloxetane and phenyltetrahydrofuran compounds as indoleamine 2,3-dioxygenase (IDO) inhibitors” (MERCK SHARP & DOHME CORP., priority 2017, dated 2022).
Where two headings read alike, the source gives them in different places.

How the values were obtained:
TDO = TDO (Homo sapiens, UniProt P48775)
Experimental: TDO Cellular Assay in Frozen SW48 Cells
SW48 cells were cultured in complete RPMI culture medium (90% RPMI, 10% heat-inactivated fetal bovine serum).
SW48 and A2780 cells were dispensed to the respective wells of 384-well assay plates containing the compounds. The plates were incubated for about 48 hours at a 37° C., 5% CO2 incubator. Afterwards, 12 μL of 0.5 M ethyl isonipecotate (Sigma Aldrich, Cat #E33505) in dimethyl sulfoxide were added into each well and the plates were sealed and incubated at 37° C. without CO2 overnight. The plates were centrifuged for 1 minute at 200×g. The resulting fluorescence was measured in a Spectramax plate reader (Molecular Devices) with a 400 nm excitation filter and a 510 nm emission filter.
The fluorescence intensity of each well was corrected for the background observed in wells with A2780 cells and was expressed as a fraction of the intensity observed in wells of SW48 cells and DMSO only. Potencies were calculated by linear least squares fit to the four parameter logistic IC50 equation.

IDO1 [1] = molecular target: T1, IDO1 (Homo sapiens, UniProt P14902); assay: IDO1 Cellular Assay in Hela Cells Stimulated with IFNγ; settings: Hela IC50 (nM), Hela cells stimulated with IFNγ 100 ng/mL, 300 uM L-tryptophan, about 48 hours; form screened: Neutral
Experimental: Hela cells were cultured in complete Hela culture medium (90% EMEM, 10% heat-inactivated fetal bovine serum) and expanded to about 1×10^9 cells. The cells were then collected and frozen down at 1×10^7 cells/vial in 1 mL frozen medium (90% complete Hela culture medium, 10% DMSO)
Compounds to be tested were serially diluted in ten 3-fold steps in DMSO starting from 10 mM DMSO stocks in Echo low volume plate(s).
Hela cells with and without IFNγ were dispensed to the respective wells of 384-well assay plates containing the compounds. The plates were incubated for about 48 hours at a 37° C., 5% CO2 incubator. Afterwards, 12 mL of 0.5 M methyl isonipecotate in dimethyl sulfoxide were added into each well and the plates were sealed and incubated at 37° C. without CO2 overnight. The plates were centrifuged for 1 min at 200×g. The resulting fluorescence was measured in a Spectramax plate reader (Molecular Devices) with a 400 nm excitation filter and a 510 nm emission filter.
Potencies were calculated by linear least squares fit to the four parameter logistic IC50 equation.

IDO1 [2] = molecular target: T1, IDO1; assay: IDO1 Human Whole Blood Assay; format: cell-based; design: Human whole blood was drawn in sodium heparin coated tubes from healthy internal donors; from tissue; host or cells: human whole blood from healthy donors, stimulated with LPS and IFNγ; settings: LPS and IFNγ 100 ng/mL, 18 h, kynurenine by LC/MS/MS, form screened: Neutral
Experimental: IDO1 Human Whole Blood Assay
LPS and IFNγ was prepared in RPMI to a 10× of final conc. (1000 ng/mL), final concentration is 100 ng/mL.
Human whole blood was drawn in sodium heparin coated tubes from healthy internal donors. […] of blood was transferred to each of the wells of a v-bottom 96 well plate. […] of compound was transferred from intermediate dilution plate, and incubated for 15 min. 30 μL from stimulants was then transferred to blood and mixed thoroughly. Plate was covered with breathable membrane and incubated at 37° C. for overnight (18 h).
On day 2 isotope labeled standard of kynurenine and tryptophan was made in water at 10× concentration and […] was added to the blood at […] final concentration. The assay plates were centrifuged at 300×G for 10 min with no brake to separate plasma from red blood cells. […] of plasma samples was removed without disturbing red blood cells. Plasma was diluted with RPMI in 1:1 ratio and proteins were precipitated out with two volume of Acetonitrile. The plates was centrifuged at 4000×G for 60 min. 20 mL of supernatant was carefully transferred to a 384 well plate contain 40 mL of 0.1% formic acid in water and analyzed by LC/MS/MS.
LC/MS/MS analyses were performed using Thermo Fisher's LX4-TSQ Quantum Ultra system. This system consists of four Agilent binary high-performance liquid chromatography (HPLC) pumps and a TSQ Quantum Ultra triple quadruple MS/MS instrument. For each sample, […] were injected onto an Atlantis T3 column (2.1 mm×150 mm, […]) from Waters. The mobile phase gradient pumped at 0.8 mL/min was used to elute the analytes from the column at 25° C. […] Mobile phase A consisted of 0.1% formic acid in water. Mobile phase B consisted of 0.1% of formic acid in acetonitrile. Data was acquired in positive mode using a HESI interface. […] Compounds were titrated and IC50's were calculated by 4 parameter sigmoidal curve fitting formula.

[3] = read-out: SW48 IC50, SW48 cells, 300 uM L-tryptophan, about 48 hours, form screened: Neutral

Chain of TDO (P48775 whole entry): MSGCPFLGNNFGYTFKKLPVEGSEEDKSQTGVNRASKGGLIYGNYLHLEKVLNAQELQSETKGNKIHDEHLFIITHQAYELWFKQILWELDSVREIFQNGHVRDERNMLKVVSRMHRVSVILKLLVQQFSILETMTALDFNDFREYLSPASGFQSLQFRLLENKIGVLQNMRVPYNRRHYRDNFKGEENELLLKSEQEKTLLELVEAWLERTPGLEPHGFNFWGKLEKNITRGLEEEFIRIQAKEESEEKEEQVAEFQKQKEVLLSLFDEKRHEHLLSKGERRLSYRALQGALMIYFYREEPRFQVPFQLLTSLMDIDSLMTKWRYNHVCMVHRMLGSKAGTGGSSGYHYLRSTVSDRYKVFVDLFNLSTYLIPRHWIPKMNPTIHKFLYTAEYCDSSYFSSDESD
T1 sequence (P14902 whole entry): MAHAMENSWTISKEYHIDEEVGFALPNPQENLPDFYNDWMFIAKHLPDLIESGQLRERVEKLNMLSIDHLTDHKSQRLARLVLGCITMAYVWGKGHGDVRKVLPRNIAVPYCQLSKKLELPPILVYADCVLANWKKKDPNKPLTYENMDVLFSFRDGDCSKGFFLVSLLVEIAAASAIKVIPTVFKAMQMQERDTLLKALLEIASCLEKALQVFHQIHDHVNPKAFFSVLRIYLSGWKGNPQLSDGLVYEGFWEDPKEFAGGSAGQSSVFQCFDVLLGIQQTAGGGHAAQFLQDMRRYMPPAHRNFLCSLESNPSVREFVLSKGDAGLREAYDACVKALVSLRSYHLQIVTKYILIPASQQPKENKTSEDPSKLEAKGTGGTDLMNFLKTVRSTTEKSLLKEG

Structure (SMILES)	IC50 (TDO; [3]) [nM]	IC50 (IDO1 [1]) [nM]	IC50 (IDO1 [2]) [nM]	IC50 (TDO) [nM]
CC1CC1NC(=O)C1(c2ccc(NC(=O)c3cccc(Cl)c3)cc2)COC1 (single isomer, unassigned) [Example 8, 3-{4-[(3-chlrobenzene-1-carbonyl)amino]phenyl}-N-(2-methylcyclo-propyl)oxetane-3-carboxamide]		85		≥ 10000
CC1CC1NC(=O)C1(c2ccc(NC(=O)c3cccc(Cl)c3)cc2)COC1 (single isomer, unassigned) [Example 9, 3-{4-[(3-chlorobenzene-1-carbonyl)amino]phenyl}-N-(2-methylcyclo-propyl)oxetane-3-carboxamide]	≥ 10000	216		
O=C(Nc1ccc(C2(C(=O)Nc3ccc(F)cc3)COC2)cc1)c1cccc(Cl)c1F [Example 3, 3-{4-[(3-chloro-2-fluorobenzene-1-carbonyl)amino]phenyl}-N-(4-fluorophenyl)oxetane-3-carboxamide]		3		≥ 10000
CCCNC(=O)C1(c2ccc(NC(=O)c3cccc(Cl)c3)cc2)COC1 [Example 5, 3-{4-[(3-chlorobenzene-1-carbonyl)amino]phenyl}-N-propyloxetane-3-carboxamide]		25	1530	
O=C(Nc1ccc(C2(C(=O)NCC3CC3)COC2)cc1)c1cccc(Cl)c1 [Example 7, 3-{4-[(3-chlorobenzene-1-carbonyl)amino]phenyl}-N-(cyclopropyl-methyl)oxetane-3-carboxamide]		56		≥ 10000
Cc1cc(C2(C(=O)Nc3ccc(F)cc3)COC2)ncc1NC(=O)c1cccc(Cl)c1 [Example 17, 3-{5-[(3-chlorobenzene-1-carbonyl)amino]-4-methylpyridin-2-yl}-N-(4-fluorophenyl)oxetane-3-carboxamide]		6		
Cc1cc(C2(C(=O)Nc3ccc(F)cc3)COC2)ncc1NC(=O)c1cccc(C#N)c1 [Example 18, 3-{5-[(3-cyanobenzene-1-carbonyl)amino]-4-methylpyridin-2-yl}-N-(4-fluorophenyl)oxetane-3-carboxamide]		58		

Continued by falling IC50 (IDO1 [1]), values first:

IC50 (TDO; [3]) [nM]	IC50 (IDO1 [1]) [nM]	IC50 (IDO1 [2]) [nM]	IC50 (TDO) [nM]	Structure (SMILES)
≥ 10000	352			CC1CC1NC(=O)C1(c2ccc(NC(=O)c3cccc(Cl)c3)cc2)COC1 (single isomer, unassigned) [Example 10, 3-{4-[(3-chlorobenzene-1-carbonyl)amino]phenyl}-N-(2-methylcyclo-propyl)oxetane-3-carboxamide]
	205			Cc1cc(NC(=O)c2cccc(Cl)c2)cnc1C1(C(=O)Nc2ccc(F)cc2)COC1 [Example 19, 3-{5-[(3-chlorobenzene-1-carbonyl)amino]-3-methylpyridin-2-yl}-N-(4-fluorophenyl)oxetane-3-carboxamide]
	51		≥ 10000	O=C(Nc1ccc(C2(C(=O)NCCC(F)(F)F)COC2)cc1)c1cccc(Cl)c1 [Example 6, 3-{4-[(3-chlorobenzene-1-carbonyl)amino]phenyl}-N-(3,3,3-trifluoropropyl)oxetane-3-carboxamide]
≥ 10000	12	324		CC1CC1NC(=O)C1(c2ccc(NC(=O)c3cccc(Cl)c3)cc2)COC1 (single isomer, unassigned) [Example 4, 3-{4-[(3-chlorobenzene-1-carbonyl)amino]phenyl}-N-(2-methylcyclopropyl)oxetane-3-carboxamide]
	3	438		N#Cc1cccc(C(=O)Nc2ccc(C3(C(=O)Nc4ccc(F)cc4)COC3)nc2)c1 [Example 20, 3-{5-[(3-cyanobenzene-1-carbonyl)amino]pyridin-2-yl}-N-(4-fluorophenyl)oxetane-3-carboxamide]
